Laboratory results taken from patent US20070264355A1, “BINARY COMPOSITIONS AND METHODS FOR STERILIZATION” (Binary, LLC, priority 2005, published 2007).
Where “and” joins values, the source holds several entries; their conditions need not be identical. Identical values can stand only once.

Tested on: Staphylococcus aureus (ATCC 6538)
Test: Microbicidal activity against Staphylococcus aureus (suspension test, surviving CFU)
Format: cell-based
Protocol: Bacterial suspensions, specifically Staphylococcus aureus (ATCC 6538) in this example, were prepared by the shake flask method to achieve late log to early stationary phase growth. Bacteria were grown 24 hours in trypticase soy broth (TSB) at 35° C. The cultures were centrifuged at 4,000 rpm for 10 minutes and the supernatants removed. The pellet was collected and washed twice with sterile 0.9% normal saline. The washed microorganisms were suspended and diluted with normal saline to a 3 McFarland standard, i.e., approximately 10^9 bacteria colony forming units (CFU) per ml. Actual colony counts are confirmed by serial dilutions (10^−1 to 10^−5 or 10^−6) plated on trypticase soy agar (TSA) and incubated overnight at 35° C. One hundred microliters of organisms from a stock of 10^7 CFU/ml were used to obtain an approximate final working target inoculum of 10^6 CFU. The microbicidal test is conducted in a vial containing 1.4 ml of final reaction mixture after neutralization.
Each solution was used alone for the individual controls. Organism suspensions were used to achieve a final target concentration of 2-3×10^6 CFU per ml. For the binary system treatments, sodium hypochlorite solution and hydrogen peroxide solution, non-acidified or acidified, were sequentially added to the microorganisms. Acidified hydrogen peroxide solution was obtained by the addition of 1.0% v/v of 0.001 N hydrochloride solution. After each addition, the resulting mixture was allowed to remain in contact with the organisms for a set amount of time at room temperature (about 22° C.), as listed in the Tables 1 and 2. At the end of the treatment time, the mixtures were neutralized with 200 to 500 microliters of thiosulfate solution (2.4%) to quench the activity of sodium hypochlorite and then treated with 100 to 200 microliters of a 1% catalase solution, containing a minimum of 100 units/ul, to quench the hydrogen peroxide activity. If needed, an appropriate volume of sterile saline was added to bring the final volume of reaction mixture to 1.4 ml after neutralization. Serial dilution plate counts were performed from the contents of each vial in sterile saline and inoculated onto TSA for quantitative culture. Plates were then incubated at 37° C. and counts taken at 24 hours.
After an additional 30 minutes, the binary system mixture was then neutralized using 2.4% thiosulfate followed by 1% catalase as described in the Methods Section.

[1] = NaOCl 0.02 mM 15 min, then saline 30 min, inoculum 2530000 CFU
[2] = NaOCl 0.02 mM 15 min, inoculum 2500000 CFU
[3] = NaOCl 0.02 mM 15 min, inoculum 2530000 CFU
[4] = NaOCl 0.03 mM 15 min, then saline 30 min, inoculum 2530000 CFU
[5] = NaOCl 0.03 mM 15 min, inoculum 2500000 CFU
[6] = NaOCl 0.03 mM 15 min, inoculum 2530000 CFU
[7] = NaOCl 0.04 mM 15 min, then saline 30 min, inoculum 2530000 CFU
[8] = NaOCl 0.04 mM 15 min, inoculum 2500000 CFU
[9] = NaOCl 0.04 mM 15 min, inoculum 2530000 CFU
[10] = NaOCl 0.05 mM 15 min, then saline 30 min, inoculum 2530000 CFU
[11] = NaOCl 0.05 mM 15 min, inoculum 2530000 CFU
[12] = NaOCl 0.06 mM 15 min, then saline 30 min, inoculum 2530000 CFU
[13] = NaOCl 0.06 mM 15 min, inoculum 2530000 CFU
[14] = NaOCl 0.07 mM 5 min, inoculum 1600000 CFU
[15] = NaOCl 0.07 mM 15 min, then saline 30 min, inoculum 2530000 CFU
[16] = NaOCl 0.07 mM 15 min, inoculum 1600000 CFU
[17] = NaOCl 0.07 mM 15 min, inoculum 2530000 CFU
[18] = NaOCl 0.07 mM 30 min, inoculum 1600000 CFU
[19] = NaOCl 0.71 mM 5 min, inoculum 1600000 CFU
[20] = NaOCl 0.71 mM 15 min, inoculum 1600000 CFU
[21] = NaOCl 0.71 mM 30 min, inoculum 1600000 CFU
[22] = NaOCl 7.05 mM 5 min, inoculum 1600000 CFU
[23] = NaOCl 7.05 mM 15 min, inoculum 1600000 CFU
[24] = NaOCl 7.05 mM 30 min, inoculum 1600000 CFU
[25] = NaOCl 70.53 mM 5 min, inoculum 1600000 CFU
[26] = NaOCl 70.53 mM 15 min, inoculum 1600000 CFU
[27] = NaOCl 70.53 mM 30 min, inoculum 1600000 CFU
[28] = NaOCl 705.27 mM 5 min, inoculum 1600000 CFU
[29] = NaOCl 705.27 mM 15 min, inoculum 1600000 CFU
[30] = NaOCl 705.27 mM 30 min, inoculum 1600000 CFU

[Na+].[O-]Cl [NaOCl, sodium hypochlorite]
Log 10 (CFU + 1) Survivors [1]: 3.0
Log Reduction [1]: 3.4
Total Viability (CFU) [1]: 1092 CFU
Log 10 (CFU + 1) Survivors [2]: 6.3
Log Reduction [2]: 0.1 and 0.12
Total Viability (CFU) [2]: 1890000 CFU
Log 10 (CFU + 1) Survivors [3]: 3.1
Log Reduction [3]: 3.3 and 3.29
Total Viability (CFU) [3]: 1288 CFU
Log 10 (CFU + 1) Survivors [4]: 2.4
Log Reduction [4]: 4.0
Total Viability (CFU) [4]: 260 CFU
Log 10 (CFU + 1) Survivors [5]: 4.9
Log Reduction [5]: 1.5 and 1.53
Total Viability (CFU) [5]: 74200 CFU
Log 10 (CFU + 1) Survivors [6]: 2.9
Log Reduction [6]: 3.5 and 3.51
Total Viability (CFU) [6]: 784 CFU
Log 10 (CFU + 1) Survivors [7]: 1.3
Log Reduction [7]: 5.1
Total Viability (CFU) [7]: 18 CFU
Log 10 (CFU + 1) Survivors [8]: 2.8
Log Reduction [8]: 3.6 and 3.61
Total Viability (CFU) [8]: 616 CFU
Log 10 (CFU + 1) Survivors [9]: 2.2
Log Reduction [9]: 4.2 and 4.18
Total Viability (CFU) [9]: 167 CFU
Log 10 (CFU + 1) Survivors [10]: 1.1
Log Reduction [10]: 5.3
Total Viability (CFU) [10]: 13 CFU
Log 10 (CFU + 1) Survivors [11]: 1.3
Log Reduction [11]: 5.1 and 5.15
Total Viability (CFU) [11]: 17 CFU
Log 10 (CFU + 1) Survivors [12]: 0.9
Log Reduction [12]: 5.5
Total Viability (CFU) [12]: 7 CFU
Log 10 (CFU + 1) Survivors [13]: 0.0
Log Reduction [13]: 6.4
Total Viability (CFU) [13]: 0 CFU
Log 10 (CFU + 1) Survivors [14]: 0.7
Log Reduction [14]: 5.5
Total Viability (CFU) [14]: 4 CFU
Total Viability (CFU) (NaOCl 0.07 mM 5 min, inoculum 1600000 CFU, listed as sodium hypochlorite): four
Log 10 (CFU + 1) Survivors [15]: 0.0
Log Reduction [15]: 6.4
Total Viability (CFU) [15]: 0 CFU
Log 10 (CFU + 1) Survivors [16]: 0.9
Log Reduction [16]: 5.3
Total Viability (CFU) [16]: 7 CFU
Total Viability (CFU) (NaOCl 0.07 mM 15 min, inoculum 1600000 CFU, listed as sodium hypochlorite): seven
Log 10 (CFU + 1) Survivors [17]: 0.0
Log Reduction [17]: 6.4
Total Viability (CFU) [17]: 0 CFU
Log 10 (CFU + 1) Survivors [18]: 0.0
Log Reduction [18]: 6.2
Total Viability (CFU) [18]: 0 CFU
Log 10 (CFU + 1) Survivors [19]: 0.0
Log Reduction [19]: 6.2
Total Viability (CFU) [19]: 0 CFU
Log 10 (CFU + 1) Survivors [20]: 0.0
Log Reduction [20]: 6.2
Total Viability (CFU) [20]: 0 CFU
Log 10 (CFU + 1) Survivors [21]: 0.0
Log Reduction [21]: 6.2
Total Viability (CFU) [21]: 0 CFU
Log 10 (CFU + 1) Survivors [22]: 0.0
Log Reduction [22]: 6.2
Total Viability (CFU) [22]: 0 CFU
Log 10 (CFU + 1) Survivors [23]: 0.0
Log Reduction [23]: 6.2
Total Viability (CFU) [23]: 0 CFU
Log 10 (CFU + 1) Survivors [24]: 0.0
Log Reduction [24]: 6.2
Total Viability (CFU) [24]: 0 CFU
Log 10 (CFU + 1) Survivors [25]: 0.0
Log Reduction [25]: 6.2
Total Viability (CFU) [25]: 0 CFU
Log 10 (CFU + 1) Survivors [26]: 0.0
Log Reduction [26]: 6.2
Total Viability (CFU) [26]: 0 CFU
Log 10 (CFU + 1) Survivors [27]: 0.0
Log Reduction [27]: 6.2
Total Viability (CFU) [27]: 0 CFU
Log 10 (CFU + 1) Survivors [28]: 0.0
Log Reduction [28]: 6.2
Total Viability (CFU) [28]: 0 CFU
Log 10 (CFU + 1) Survivors [29]: 0.0
Log Reduction [29]: 6.2
Total Viability (CFU) [29]: 0 CFU
Log 10 (CFU + 1) Survivors [30]: 0.0
Log Reduction [30]: 6.2
Total Viability (CFU) [30]: 0 CFU
